Each structure is given as a SMILES string. Like-named read-outs stand apart in the source and are kept apart here.

Data set [1] has as its system L. (V.) braziliensis promastigotes. The data set is described as follows: Antileishmanial activity on promastigotes (MTT, 72 h). It is filed as cell-based, Leishmania (Viannia) braziliensis. Here is the method:
Leishmania (Viannia) braziliensis (MHOM/BR/1975/M2903) was utilized in this study. The promastigote forms of these parasites were maintained in vitro in Schneider’s insect medium pH 7.2, supplemented with 20% fetal bovine serum (FBS) and 1% antibiotic solution (100 U/mL penicillin and 100 μg/mL streptomycin) at a temperature of 26 ± 1 °C in a Biochemical Oxygen Demand (BOD) incubator (Eletrolab EL202, São Paulo, Brazil), with regular aeration and weekly subculturing.
Assessment of antileishmanial activity against promastigote and amastigote axenic forms of parasites followed the method described by Rodrigues et al. and involved the following steps: L. (V.) braziliensis parasites were cultured in 96-well plates at a concentration of 1 × 10^6 parasites per well. Each well contained 100 μL of supplemented Schneider medium. Serial concentrations of the test substances, ranging from 50 to 1.56 μmol/L, were prepared. Reference drugs, meglumine antimoniate (20 to 40,000 μmol/L) and amphotericin B (0.031 to 2 μmol/L) were also prepared. These concentrations were used to assess the effects of the test substances in comparison to reference drugs. The plates were incubated in a BOD incubator at 26 °C for 72 h. After the 72 h incubation period, 10 μL of MTT (5 mg/mL) was added to each well. The plates were then incubated for an additional 4 h. At the end of the 4 h incubation, formazan crystals formed by the reduction of the MTT salt were solubilized by adding 50 μL of a 10% (w/v) sodium dodecyl sulfate (SDS) solution in distilled water. Absorbance was measured using a microplate reader at a wavelength of 540 nm (Biosystems ELx800 model, Curitiba, PR, Brazil). This measurement quantified the metabolic activity of the parasites, which is indicative of their viability and proliferation. Schneider medium containing 0.2% DMSO was used as a negative control in the tests.
The different mean concentrations for promastigotes (IC50) and macrophages (CC50) were calculated using nonlinear regression. For comparisons between groups, ANOVA analysis of variance was performed followed by Tukey’s test in a statistical program, taking the p-value < 0.05 as the maximum level of statistical significance.

Data set [2] relates to right atrium. The experiment in a line: Chronotropic effect on isolated right atrium. Further details: species or system guinea pig. The settings on record: for effect on heart rate (chronotropic): isolated guinea pig heart muscle preparation, up to 100 µmol/L. Here is the method: (§1) Guinea pigs of either sex weighing between 250 or 380 g were utilized in this study. The animals were housed in a controlled environment in an air-conditioned room, maintaining a temperature of 22 to 24 °C and a relative humidity of 50% to 60%. A 12 h light–dark cycle was maintained.
(§2) On the day of the experiments, the animals were euthanized via cervical dislocation. The heart, aorta, pulmonary artery, and ileum were surgically removed and immersed in Krebs–Henseleit solution, with the following composition: NaCl 144.9 mM, KCl 4.73 mM, CaCl2 3.2 mM, MgSO4 1.18 mM, NaHCO3 24.9 mM, KH2PO4 1.18 mM, and glucose 10 mM, with the pH maintained at 7.2–7.4. This solution was continuously aerated with a mixture of 95% O2 and 5% CO2.
(§3) Papillary muscles were isolated from the right ventricle of the heart and meticulously cleared of Purkinje fibers to prevent spontaneous activity. To ensure adequate oxygen supply, only muscles with a diameter less than 0.87 mm were used. The right atrium was also dissected for assessment of chronotropic activity. Both the aorta and pulmonary artery were cleaned and cut into 5 mm rings, while the ileum was sectioned into pieces measuring 1 to 2 cm.
(§4) One end of the dissected tissues was securely tied with silver wire for attachment to a tissue holder, while the other end was connected to a force transducer (Transbridge™, 4-Channel Transducer Amplifier, World Precision Instruments, Sarasota, FL, USA). For contractile measurements, the terminal ileum was stimulated with 60 mM KCl, and the pulmonary artery and aorta rings were exposed to a 90 mM KCl solution. Papillary muscles were electrically stimulated using an Anapulse Stimulator Model 301-T and an Isolation Unit Model 305-1 (WPI, Hamden, CT, USA) with rectangular pulses of 3 ms duration at a frequency of 1 Hz. The amplitude of the stimulation pulse was maintained at 10% above the threshold level. To optimize contractility, a constant resting tension was applied throughout the experiment: 3.9 mN for papillary muscle, 4.9 mN for terminal ileum, 10.4 mN for the right atrium, and 19.6 mN for aorta and pulmonary artery rings.
(§5) Following a 30 min control period, different concentrations of test compounds were cumulatively added to the bath solution every 45 min until a stable effect was achieved. The responses were recorded using a chart recorder (BD 112 Dual Channel, Kipp &Zonen, PO Box 507, 2624 BC, Delft, Holland) for subsequent evaluation. Stock concentrations of the test compounds were prepared using DMSO. To account for any potential DMSO effect, control experiments were conducted with the solvent alone, and the observed effects were subtracted from the responses elicited by the test compounds.

For data set [3], the system named is terminal ileum. The data set is described as follows: Spasmolytic effect on terminal ileum (KCl contraction). The settings on record: guinea pig terminal ilea, KCl-induced contraction. The method, then:
as §1, §2, §3, §4, §5

On to `CC(C)(C)c1ccc(N/C(=N\C(=O)c2ccccc2)NCc2ccccc2)cc1` [LQOF-G6, (Z)-N-benzoyl-N-benzyl-N-(4-tert-butylphenyl)guanidine], for which, in data set [1] (Leishmania braziliensis), the IC50 came out at 5.9 ± 0.9 µM.

`O=C(/N=C(/NCc1ccccc1)Nc1ccc(Br)cc1)c1ccccc1` [LQOF-G2, (Z)-N-benzoyl-N-benzyl-N-(4-bromophenyl)guanidine]: the EC50 in data set [2] (Cavia porcellus, isolated guinea pig right atrium, 3 to 100 µmol/L, read-out: EC50 reduction of heart rate activity) came out at 69 µM. In data set [1] (Leishmania braziliensis), this molecule returned an IC50 of 5.4 ± 0.8 µM. Moreover, in data set [3], the “spasmolytic effect / contraction force in the terminal ileum” value (from here on “spasmolytic effect / contraction force”) is given as “decrease in contraction force”.

On to `O=C(/N=C(/NCc1ccccc1)Nc1ccc([N+](=O)[O-])cc1)c1ccccc1` [LQOF-G1, (Z)-N-benzoyl-N-benzyl-N-(4-nitrophenyl)guanidine], for which the “effect on heart rate (chronotropic)” value in data set [2] is listed as “slight decrease in heart rate”. In addition, the IC50 in data set [1] came out at 4.6 ± 0.5 µM; in data set [1] (Leishmania braziliensis) it was 4.62 µM. The “spasmolytic effect / contraction force” value in data set [3] was “decrease in contraction force”.

`O=C(/N=C(/NCc1ccc(Cl)cc1Cl)Nc1ccc(Br)cc1)c1ccccc1` [LQOF-G32, (Z)-N-benzoyl-N-(2,4-di-chlorobenzyl)-N-(4-bromophenyl)guanidine]: the “effect on heart rate (chronotropic)” value in data set [2] is given as “slight decrease in heart rate”. In addition, in data set [1] (Leishmania braziliensis), it took 17.2 ± 1 µM to reach half-maximal inhibition (IC50). Moreover, the “spasmolytic effect / contraction force” value in data set [3] is reported as “decrease in contraction force”.

Consider `O=C(/N=C(/NCc1ccccc1)Nc1ccc(I)cc1)c1ccccc1` [LQOF-G7, (Z)-N-benzoyl-N-benzyl-N-(4-iodophenyl)guanidine], for which, in data set [2], the “effect on heart rate (chronotropic)” value is on record as “slight decrease in heart rate”. The IC50 in data set [1] (Leishmania braziliensis) came out at 7.2 ± 0.6 µM. Further, in data set [3], the “spasmolytic effect / contraction force” value is on record as “decrease in contraction force”.

Broadly, the IC50 is the concentration at which inhibition is half-maximal. Higher therefore signals lower potency. For orientation: EC50 means the concentration that produces a half-maximal response.
